± gives the expanded uncertainty stated by the source.
Assays:
[1] = refractive index (Na D-line) (dimensionless); settings: 298.15 K, 101.33 kPa, Liquid
[2] = 298.15 K, 101.33 kPa, Liquid
[3] = refractive index (Na D-line) (dimensionless); xn = mol fraction of the nth substance listed; settings: 298.15 K, 101 kPa, Liquid
[4] = xn = mol fraction of the nth substance listed; settings: 298.15 K, 101 kPa, Liquid; for mass density: Vibrating tube method

CCCCn1cc[n+](C)c1.F[P-](F)(F)(F)(F)F [1-butyl-3-methylimidazolium hexafluorophosphate]
Settings	mass density [kg/m3]	refractive index	speed of sound [m/s]	viscosity [mPa·s]
[1]	–	1.4095 ± 0.0018	–	–
[2]	1366.07 ± 3.8	–	1443.5 ± 3.5	212.1 ± 42

CCCCn1cc[n+](C)c1.F[P-](F)(F)(F)(F)F [1-butyl-3-methylimidazolium hexafluorophosphate] + C1CCOC1
Settings	mass density, [4] [kg/m3]	refractive index, [3]	speed of sound, [4] [m/s]	viscosity, [4] [mPa·s]
x1 = 0.0199	911.565 ± 0.12	–	1279.2 ± 2.6	–
x1 = 0.0376	936.57 ± 0.12	–	1279.9 ± 2.7	–
x1 = 0.0502	–	1.4084 ± 0.0006	–	0.75 ± 0.077
x1 = 0.0737	979.097 ± 0.13	–	1287.9 ± 2.7	–
x1 = 0.0967	–	1.4117 ± 0.0006	–	1.14 ± 0.11
x1 = 0.15	1055.63 ± 0.22	–	1312.6 ± 2.8	–
x1 = 0.1524	–	1.4125 ± 0.0006	–	1.732 ± 0.16
x1 = 0.1999	–	1.4126 ± 0.0006	–	2.476 ± 0.22
x1 = 0.2003	1095.84 ± 0.27	–	1329.2 ± 2.8	–
x1 = 0.2486	1129.41 ± 0.32	–	1343.7 ± 2.8	–
x1 = 0.2969	–	1.413 ± 0.0007	–	4.937 ± 0.43
x1 = 0.3004	1159.97 ± 0.37	–	1357.3 ± 2.9	–
x1 = 0.3484	–	1.4128 ± 0.0007	–	6.979 ± 0.56
x1 = 0.3491	1185.7 ± 0.43	–	1368.6 ± 2.9	–
x1 = 0.3994	–	1.4127 ± 0.0007	–	10.06 ± 0.75
x1 = 0.4484	–	1.4126 ± 0.0007	–	14.54 ± 1
x1 = 0.4634	1235.91 ± 0.58	–	1390.5 ± 3	–
x1 = 0.5028	–	1.4117 ± 0.0007	–	18.5 ± 1.3
x1 = 0.5808	1276.69 ± 0.76	–	1406.9 ± 3.1	–
x1 = 0.6047	–	1.4115 ± 0.0007	–	33.63 ± 2.2
x1 = 0.6941	1306.09 ± 0.96	–	1418.7 ± 3.2	–
x1 = 0.7016	–	1.411 ± 0.0007	–	52.84 ± 1
x1 = 0.7996	1329.25 ± 1.2	–	1427.8 ± 3.3	–
x1 = 0.805	–	1.4105 ± 0.0007	–	90.82 ± 15
x1 = 0.8991	1348.14 ± 1.4	–	1435.7 ± 3.4	–
x1 = 0.9595	–	1.4095 ± 0.0007	–	186.86 ± 67

CCCCn1cc[n+](C)c1.F[P-](F)(F)(F)(F)F [1-butyl-3-methylimidazolium hexafluorophosphate] + CC#N
Settings	refractive index, [3]	viscosity, [4] [mPa·s]
x1 = 0.0496	1.3575 ± 0.0006	0.556 ± 0.06
x1 = 0.1016	1.3687 ± 0.0006	0.864 ± 0.087
x1 = 0.147	1.3754 ± 0.0006	1.187 ± 0.12
x1 = 0.2022	1.3819 ± 0.0006	1.866 ± 0.17
x1 = 0.2995	1.3902 ± 0.0006	3.792 ± 0.34
x1 = 0.3524	1.3934 ± 0.0006	5.308 ± 0.45
x1 = 0.4036	1.3959 ± 0.0006	7.674 ± 0.6
x1 = 0.4337	1.3974 ± 0.0006	9.153 ± 0.69
x1 = 0.4955	1.3998 ± 0.0007	14.44 ± 1
x1 = 0.5892	1.4024 ± 0.0007	23.84 ± 1.6
x1 = 0.6857	1.4048 ± 0.0007	40.69 ± 2.7
x1 = 0.8046	1.4068 ± 0.0007	81.53 ± 11
x1 = 0.8055	1.4069 ± 0.0007	86.27 ± 13
x1 = 0.9176	1.4084 ± 0.0007	154.06 ± 47

CCCCn1cc[n+](C)c1.F[P-](F)(F)(F)(F)F [1-butyl-3-methylimidazolium hexafluorophosphate] + CO
Settings	refractive index, [3]	viscosity, [4] [mPa·s]
x1 = 0.0503	1.348 ± 0.0009	0.913 ± 0.091
x1 = 0.0993	1.3636 ± 0.0009	1.483 ± 0.14
x1 = 0.1517	1.371 ± 0.0009	2.331 ± 0.21
x1 = 0.1969	1.3768 ± 0.0009	3.059 ± 0.27
x1 = 0.3024	1.3872 ± 0.0009	6.057 ± 0.5
x1 = 0.3531	1.3892 ± 0.002	8.072 ± 0.62
x1 = 0.4106	1.3941 ± 0.0009	11.03 ± 0.81
x1 = 0.451	1.3961 ± 0.001	13.52 ± 0.97
x1 = 0.502	1.3986 ± 0.001	17.29 ± 1.2
x1 = 0.6015	1.4015 ± 0.001	27.41 ± 1.8
x1 = 0.7082	1.4045 ± 0.001	45.95 ± 3
x1 = 0.7989	1.4066 ± 0.001	66.79 ± 5.4
x1 = 0.8889	1.4078 ± 0.001	107.94 ± 23

CCCCn1cc[n+](C)c1.F[P-](F)(F)(F)(F)F [1-butyl-3-methylimidazolium hexafluorophosphate] + C[S+](C)[O-]
Settings	mass density, [4] [kg/m3]	refractive index, [3]	speed of sound, [4] [m/s]	viscosity, [4] [mPa·s]
x1 = 0.0011	1096.21 ± 0.078	–	1484.8 ± 2.9	–
x1 = 0.0024	1097.26 ± 0.079	–	1484.9 ± 2.9	–
x1 = 0.0187	1109.73 ± 0.088	–	1483.5 ± 2.9	–
x1 = 0.0321	1119.44 ± 0.097	–	1482.4 ± 2.9	–
x1 = 0.05	–	1.4676 ± 0.0006	–	2.749 ± 0.25
x1 = 0.0552	1135.09 ± 0.11	–	1480.5 ± 2.9	–
x1 = 0.0635	1140.41 ± 0.12	–	1479.9 ± 2.9	–
x1 = 0.0996	1161.89 ± 0.14	–	1477.3 ± 2.9	–
x1 = 0.0997	–	1.4606 ± 0.0006	–	3.698 ± 0.33
x1 = 0.1477	–	1.4546 ± 0.0006	–	4.962 ± 0.43
x1 = 0.153	1189.47 ± 0.18	–	1473.7 ± 2.9	–
x1 = 0.1977	–	1.4491 ± 0.0006	–	6.489 ± 0.53
x1 = 0.2381	1225.52 ± 0.25	–	1469.4 ± 3	–
x1 = 0.2995	–	1.4396 ± 0.0006	–	11.95 ± 0.87
x1 = 0.3372	1258.28 ± 0.35	–	1464.5 ± 3	–
x1 = 0.3524	–	1.4361 ± 0.0006	–	16 ± 1.1
x1 = 0.3997	–	1.4331 ± 0.0006	–	21.17 ± 1.4
x1 = 0.4328	–	1.4309 ± 0.0007	–	24.61 ± 1.7
x1 = 0.5018	–	1.4278 ± 0.0007	–	36.98 ± 2.4
x1 = 0.5586	1309.44 ± 0.65	–	1454.9 ± 3.1	–
x1 = 0.598	–	1.4226 ± 0.0007	–	56.31 ± 1.9
x1 = 0.7043	–	1.4182 ± 0.0007	–	83.73 ± 12
x1 = 0.7791	1342.89 ± 1.1	–	1448.2 ± 3.3	–
x1 = 0.7812	–	1.4158 ± 0.0007	–	117.54 ± 28
x1 = 0.893	–	1.4125 ± 0.0007	–	173.32 ± 59
x1 = 0.925	1359.3 ± 1.5	–	1444.7 ± 3.4	–

CC#N [acetonitrile]
Settings	refractive index	speed of sound [m/s]
[1], Standard Abbe refractometry	1.3419 ± 0.0007	–
[2], Sing-around technique in a fixed-path interferometer	–	1278.7 ± 1.2

[2]
Settings	mass density [kg/m3]	viscosity [mPa·s]
–	776.565 ± 0.31	0.339 ± 0.021

C[S+](C)[O-] [dimethyl sulfoxide]
Settings	refractive index	speed of sound [m/s]
[1], Standard Abbe refractometry	1.4769 ± 0.0007	–
[2], Sing-around technique in a fixed-path interferometer	–	1485 ± 1.2

[2]
Settings	mass density [kg/m3]	viscosity [mPa·s]
–	1095.3 ± 0.19	1.961 ± 0.09

CO [methanol]
Settings	refractive index	speed of sound [m/s]
[1], Standard Abbe refractometry	1.3269 ± 0.0007	–
[2], Sing-around technique in a fixed-path interferometer	–	1102.9 ± 1.1

[2]
Settings	mass density [kg/m3]	viscosity [mPa·s]
–	786.654 ± 0.3	0.54 ± 0.03

C1CCOC1 [tetrahydrofuran]
Settings	refractive index	speed of sound [m/s]
[1], Standard Abbe refractometry	1.405 ± 0.0007	–
[2], Sing-around technique in a fixed-path interferometer	–	1278.2 ± 1.3

[2]
Settings	mass density [kg/m3]	viscosity [mPa·s]
–	882.008 ± 0.45	0.449 ± 0.026
